# Assay results as given in US20040053893A1, “Method of assaying iysophospholipase d activity” (priority 2000, published 2004).
# What was measured:
# LPLD in human serum = LPLD in human serum (Homo sapiens, UniProt Q13822); test: LPLD activity assay with chromogenic substrates, human serum sample (Example 6); details: pH 8.0, 37° C., p-nitrophenol release at 405 nm, compared with 1-acyl-2-hydroxy substrates B and D (FIG. 2-1)
# Protocol: 2-[4-(2-hydroxyethyl)-1-piperazinyl]ethanesulfonic acid (100 mmol/L), Triton X-100 (0.01%)
# Using human serum as a sample, 5% human serum albumin (fatty acid free: Sigma) solution was used for determining the activity in albumin fraction in the serum, and a 5 U/mL solution of Streptomyces-derived PLD (product abbreviation PLDP: Asahi Chemical Industry Co., Ltd.) was used for determining the reactivity with phospholipase D (PLD).
# Each sample (10 μL) and reagent A (150 μL) were dispensed to a microplate and the plate was incubated at 37° C. for about 5 min. Thereto was added reagent C (50 μL) and the absorbance at a dominant wavelength of 405 nm and sub wavelength of 540 nm was measured with the lapse of time. The LPLD activity was determined based on changes in absorbance per minute that depend on p-nitrophenol released by the action of LPLD. The activity is expressed by the amount of p-nitrophenol released in one minute per 1 mL of the reaction mixture.
# [1] = molecular target: T1, purified LPLD (bovine lysophospholipase D) (Bos taurus, UniProt A1A4K5); test: LPLD activity assay using purified LPLD at various reaction pHs (Example 12); assay type: biochemical; details: purified LPLD of Example 9, 37° C., 405 nm (FIG. 5)
# T1 construct: The starting material, FCS, and respective fractions obtained in the above-mentioned (1)-(7) were assayed for lysophospholipase D activity; from tissue; host or cells: fetal calf serum (FCS), chromatographic purification
# Protocol: (2) Preparation of Reagents
# Reagent C: 1-myristoyl-phosphatidyl-p-nitrophenol was dissolved in reagent B to correspond to 10 mmol/L and used as reagent C.
# For assay, biochemical automatic analyzer (Toshiba Corporation: TBA-80FR NEO) was used. The purified LPLD (8 μL) obtained in Example 9 and reagent A (240 μL) were pre-warmed at 37° C. for about 15 min, and after addition of reagent C (80 μL), the absorbance at dominant wavelength 405 nm and sub wavelength of 505 nm was measured with lapse of time for about 15 min.
# LPLD = test: Substrate specificity of purified LPLD or recombinant LPLD (Table 1); assay type: biochemical
# Excerpt: The thus-obtained purified LPLD or recombinant LPLD has a substrate specificity as shown in, for example, Table 1.
# [2] = molecular target: T2, LPLD in control serum (CONSERA, Lipid Serum II) (Homo sapiens, UniProt Q13822); test: LPLD activity assay at various reaction pHs, control sera (Example 5); assay type: biochemical; details: reagent B pH 7.6-8.6, 37° C. (FIG. 1)
# T2 construct: Two kinds of commercially available control serum; purchased Nissui Pharmaceutical Co. (CONSERA); Eiken Chemical Co., Ltd. (Lipid Serum II); host or cells: commercial control serum
# Excerpt: (1) Preparation of Reagent
# human serum albumin = human serum albumin (Homo sapiens, UniProt P02768); details: 5% human serum albumin, reagent B pH 7.6-8.6, 37° C. (FIG. 1)
# Chain of human serum albumin (P02768 25-609): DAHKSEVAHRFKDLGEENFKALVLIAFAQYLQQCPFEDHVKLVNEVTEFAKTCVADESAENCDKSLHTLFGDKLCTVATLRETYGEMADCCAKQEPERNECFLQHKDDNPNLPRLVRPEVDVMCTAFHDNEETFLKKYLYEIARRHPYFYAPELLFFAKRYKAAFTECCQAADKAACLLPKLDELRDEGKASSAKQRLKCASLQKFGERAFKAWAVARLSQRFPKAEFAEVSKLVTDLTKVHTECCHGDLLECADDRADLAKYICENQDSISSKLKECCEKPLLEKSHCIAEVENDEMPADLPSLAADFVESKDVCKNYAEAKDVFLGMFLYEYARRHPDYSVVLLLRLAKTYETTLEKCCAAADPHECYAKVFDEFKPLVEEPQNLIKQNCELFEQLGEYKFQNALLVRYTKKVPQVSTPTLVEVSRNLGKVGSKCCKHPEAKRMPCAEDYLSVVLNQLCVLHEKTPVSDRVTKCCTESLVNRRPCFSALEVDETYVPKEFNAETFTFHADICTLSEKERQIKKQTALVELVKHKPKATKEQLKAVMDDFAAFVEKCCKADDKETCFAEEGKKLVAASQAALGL
# Excerpt: Reagent A: N-(2-hydroxyethyl)piperazine-N′-3-propanesulfonic acid (200 mmol/L), Triton X-100 (0.02%)
# Reagent B: reagent A was separated and adjusted to pH 7.6, 7.8, 8.0, 8.2, 8.4 and 8.6, diluted 2-fold to give reagent B having various pHs.
# citric acid monohydrate (10 mmol/L), Triton X-100 (0.01%), 1-hydroxy-2-linoleoyl-phosphatidyl-p-nitrophenol (Example 3; 10 mmol/L) prepared in the above-mentioned Example.
# Two kinds of commercially available control serum, respective test sample 1 (CONSERA: Nissui Pharmaceutical Co.) and test sample 2 (Lipid Serum II: Eiken Chemical Co., Ltd.), and 5% human serum albumin (fatty acid free: Sigma) solution for determination of the activity of albumin fraction in the serum, were used.
# Each sample (10 μL) and reagent B (150 μL) were dispensed to a microplate and the plate was incubated at 37° C. for about 5 min. Thereto was added reagent C (50 μL) and the absorbance at a dominant wavelength of 405 nm and sub wavelength of 540 nm was measured with the lapse of time. The LPLD activity was determined based on changes in absorbance per minute that depend on p-nitrophenol released by the action of LPLD. The activity is expressed by the amount of p-nitrophenol released in one minute per 1 mL of the reaction mixture.
Molecule,Reaction product (LPLD),other results
CCCCCCCC/C=C\CCCCCCCC(=O)OC(CO)COP(=O)(O)Oc1ccc([N+](=O)[O-])cc1 (centres unmarked) [substrate C],–,response to human serum (LPLD in human serum): higher
CCCCCCCCCCCCCC(=O)OCC(O)COP(=O)(O)Oc1ccc([N+](=O)[O-])cc1 (centres unmarked) [1-myristoyl-phosphatidyl-p-nitrophenol],–,LPLD activity as a function of reaction pH [1]: stronger activity was found when pH was on the alkaline side
lysophosphatidylserine,"lysophosphatidic acid, serine",–
CCCCC/C=C\C/C=C\CCCCCCCC(=O)OC(CO)COP(=O)(O)Oc1ccc([N+](=O)[O-])cc1 (centres unmarked) [substrate A],–,response to human serum (LPLD in human serum): higher; LPLD activity as a function of reaction pH [2]: potent when pH is on the alkaline side; activity in a human serum albumin fraction as a function of reaction pH (human serum albumin): also increases
1-alkenyl-2-hydroxy-glycerophosphocholine,1-alkenyl-2-hydroxy-glycero-3-,–
lysophosphatidylcholine,"lysophosphatidic acid, choline",–
lysophosphatidylinositol,"lysophosphatidic acid,",–
lysophosphatidylethanolamine,"lysophosphatidic acid,",–
CCCCCCCCCCCCC/C=C/[C@@H](O)[C@@H](N)COP(=O)([O-])OCC[N+](C)(C)C [lysosphingomyelin],"Sphingosine-1-phosphate,",–
